Test results: patent US7687640B2, “Cinnamide compound” (Eisai R&D Management Co., Ltd., priority 2004, dated 2010)

System: Aβ42 production
Experiment: Quantification of Aβ peptide (Aβx-42 ELISA) in neuronal culture from rat fetus brain
Type: cell-based
Details: primary neuronal culture from cerebral cortices of embryonic day 18 Wistar rat; compound added on day 4 of culture, incubation for 3 days; Aβx-42 in medium by ELISA, % of CTRL; read-out: Effect to Reduce Aβ42 Production IC50
Method: Quantification of Aβ Peptide in Neuronal Culture from Rat Fetus Brain (1)
Primary neuronal cultures were prepared from cerebral cortices from embryonic day 18 Wistar rat (Charles River Japan, Yokohama, Japan). The embryos were aseptically removed from a pregnant rat under ether anesthesia. The brain was isolated from the embryo, and immersed in ice-cold L-15 medium (for example, Invitrogen Corp. Cat #11415-064, Carlsbad, Calif., USA, or SIGMA L1518, St. Louis. MO, USA). The cerebral cortex was collected under a stereoscopic microscope from the brain. The cerebral cortex fragments collected were subjected to enzyme treatment in an enzyme solution containing 0.25% trypsin (for example, Invitrogen Corp., Cat #15050-065, Carlsbad, Calif., USA) and 0.01% DNase (for example, Sigma D5025, St. Louis. MO, USA) at 37 C for 30 minutes to allow for cell dispersion. The enzyme reaction was terminated by addition of same volume of heat-inactivated horse serum. After centrifugation at 1500 rpm for 5 minutes, the supernatant was removed and 5-10 ml of medium was added to the cell pellet. Neurobasal Medium™ (Invitrogen Corp., Carlsbad, Calif., USA) supplemented with 2% B-27 supplement (Invitrogen Corp., Carlsbad, Calif., USA), 25 μM 2-mercaptoethanol (2-ME, WAKO, 139-06861, Osaka, Japan), 0.5 mM L-glutamine (for example, Invitrogen Corp., Cat # 25030-081, Carlsbad, Calif., USA), and 1% antibiotics-antimycotics (Invitrogen Corp., Cat # 15240-062, Carlsbad, Calif., USA) was used as the culture medium (Neurobasal/B27/2-ME). At the compound evaluation, the medium of the same composition not to add 2-ME alone (Neurobasal/B27) was used. The cell pellet was triturated by mild pipetting. Remaining cell pellet was removed by filtering through a 40-μm nylon mesh (Cell Strainer, Cat # 35-2340, Becton Dickinson Labware, Franklin Lakes, N.J., USA) and a neuronal cell suspension was obtained. The neuronal cell suspension was diluted with the Neurobasal/B27/2-ME medium and then plated in a volume of 100 μl/well to obtain an initial cell density of 5×10^5 cells/cm^2 in a 96-well polystyrene plate pre-coated with poly-L or D-lysine (for example, Falcon MICROTEST Tissue culture plate 96 well flat bottom with low evaporation lid (Cat # 35-3075, Becton Dickinson Labware, Franklin Lakes, N.J., USA) coated with poly-L-lysine using the method shown below, or BIOCOAT™ cell environments Poly-D-lysine cell ware 96-well plate, Cat # 35-6461, Becton Dickinson Labware, Franklin Lakes, N.J., USA). Poly-L-lysine coating was carried out as follows. Poly-L-lysine (SIGMA P2636, St. Louis, Mo., USA) solution at 100 μg/ml was prepared aseptically with 0.15 M Borate buffer (pH 8.5). The solution was added to a 96-well polystyrene […] at 50-100 μl/well and incubated at room temperature for one hour or more, or at 4 C overnight or longer. This was rinsed 4 or more times with sterile water, and then dried or rinsed with, for example, sterile PBS or medium, and used for plating cells. Cells were cultured for one day in an incubator of 5% CO2-95% air at 37 C, the entire amount of the medium was exchanged with fresh Neurobasal/B27/2-ME, and the cells were then cultured for further 3 days.
Drugs were added on day 4 of culture as follows. The entire amount of the medium was removed from culture well, and Neurobasal/B27 medium was added at 180 μl/well. The test compound dimethyl sulfoxide (hereinafter abbreviated as DMSO) solution was diluted with Neurobasal/B27 so than it would be 10-fold of the desired final concentration. A diluent was added at 20 μl/well and mixed well. The final concentration of DMSO was 1% or less. Only DMSO was added to the control group.
After incubation for 3 days, the entire amount of the medium was collected as ELISA sample. This was used without any dilution for Aβx-42 measurement, and diluted to 5-fold with the diluent supplied with ELISA kit for Aβx-40 measurement, before subjecting to respective ELISA assays. […]

SMILES | IC50
COc1cc(/C=C2\CCCN(C3CCc4ccccc4C3)C2=O)ccc1-n1cnc(C)c1 (stereo not drawn) [Example 1014, (E)-3-[3-methoxy-4-(4-methyl-1H-imidazol-1-yl)benzylidene]-1-[(2R and 2S)-1,2,3,4-tetrahydronaphthalen-2-yl]piperidin-2-one] | 60 nM
COc1cc(/C=C2\CCCN(C3CCOc4cc(F)ccc43)C2=O)ccc1-n1cnc(C)c1 [Example 1025, (E)-1-[(4R) and (4S)-7-fluorochroman-4-yl]-3-[3-methoxy-4-(4-methyl-1H-imidazol-1-yl)benzylidene]piperidin-2-one] | 70 nM
COc1cc(/C=C2\CCCN(C3COc4ccccc4C3)C2=O)ccc1-n1cnc(C)c1 (stereo not drawn) [Example 1027, (E)-1-[(3R and 3S)-chroman-3-yl]-3-[3-methoxy-4-(4-methyl-1H-imidazol-1-yl)benzylidene]piperidin-2-one] | 71 nM
